What was measured:
[1] = test system: SCD1 protein production in SZ95-SCD1-HiBit cells; assay: Measurement of SCD1 expression in SZ95-SCD1-HiBit cells (HiBiT assay); assay type: cell-based; conditions: Homo sapiens; for EC50: SZ95-SCD1-HiBit cells, 48h incubation, top concentration 18 μM; for Emax: percent compared to the reference compound (Compound H), 48h, read-out: HiBit Amax
Experimental: SZ95-SCD1-HiBit cells were seeded in 384-well cell culture white plates at a density of 3000 cells/30 ul. Water is added to edge wells to avoid evaporation. Cells were incubated in a humidified incubator with 5% CO2 at 37° C. overnight. Tested compounds were diluted at a ratio of 1:3 using Agilent BRAVO Automated Liquid Handling Platform and added to cells at final concentrations starting from 18 μM. Compound H was used as a reference compound in each plate. Cells in the assay plate were incubated in a humidified incubator with 5% CO2 at 37° C. for 48h.
The assay plates were removed from the incubator and allowed to equilibrate to room temperature. Nano-Glo® HiBiT Detection Reagent (Promega; a mixture of Nano-Glo HiBiT Detection Buffer, Nano-Glo HiBiT Detection Substrate, and LgBiT protein) was added into assay plates, at a volume equal to cell culture medium in each well. Plates were placed on an orbital shaker at a speed of 300-600 rpm for 10 min at room temperature, and read on an EnVision Plate Reader using luminescence detection with a 1 second read time.
The assay measures the increase in SCD1 protein production in vitro. Amax refers to the percent […] of the tested compound compared to the reference compound.

[2] = test system: SZ95 (immortalized human sebaceous gland cells) cells; assay: Sentinel lipid assay (desaturation index in SZ95 sebocytes); assay type: cell-based; conditions: for EC50: SZ95 cells, 72h incubation, top concentration 10 μM, desaturation index, read-out: SLA EC50; for Emax: percent compared to the reference compound (Compound H), 72h, read-out: SLA Amax
Experimental: SZ95 (immortalized human sebaceous gland cells) cells were seeded in Greiner bio-one 96-well polypropylene plates that were pre-treated with 50 μg/ml Human Plasma Fibronectin (Thermo Fisher Scientific) at a density of 10^4 cells/135 μl. Cells were incubated in a humidified incubator with 5% CO2 at 37° C. overnight. Test compounds were diluted at a ratio of 1:3 and added to cells at final concentrations starting from 10 μM. Compound H was used as a positive control reference compound in each plate. Cells in the assay plate were incubated in a humidified incubator with 5% CO2 at 37° C. for 72h.
Culture medium was removed from the cells and cells in culture plates were washed with ice cold phosphate buffered saline three times. Plates were heat sealed and stored in a −80° C. freezer prior to Sentinel lipid assay.
Sentinel lipid assay: The sentinel lipid assay was used quantify the change in the global desaturation index in SZ95 sebocytes upon administration of LXR agonist compounds. The assay measures a smaller subset of lipid analytes in […] (termed “sentinel lipids”) which would model the global changes the population of both saturated and desaturated lipids in the cells. In order to define this smaller subset of lipids, a complete lipid profile was recorded on dose response curves (eight levels from 4 nM to 10 uM) of Compounds A-N. An elastic net regression model was applied separately to both the saturated and desaturated lipids to determine the minimum combination of coefficients and analytes which could be used to adequately model the total population of lipids. The elastic net model was able to reduce the behavior of 425 lipids to 11 lipids and the correlation between the desaturation indices observed using the complete set of lipids with from the 11 sentinel lipids was 0.96.
A medium throughput assay was created using this reduced set of sentinel lipids. A single batch is defined as triplicate examples of three unique plates (i.e., a single batch of cells is used to create nine plates for LC-MSMS analysis). Lipids were extracted from the cells using a 1:1 mixture of methylene chloride/methanol containing 10 nM of deuterated standards of triglycerides, which are used as internal standards for quantitating the lipid abundance. The lipids were separated prior to mass spectrometric analysis using a five minute HPLC gradient. The abundance of the sentinel lipids and the internal standards are measured using multiple reaction monitor mode (MRM) on a triple quadrupole mass spectrometer. The data was transformed from total ion current to nmoles/10^6 cells, which are multiplied by the coefficients from the elastic net model to determine the effective desaturated and saturated content, and therein the desaturation index of the dosed cells. In order to compare compounds from multiple batches with one another, the measure raw desaturation index was normalized by dividing it by the desaturation index of the DMSO dosed cells, and all data was assessed as the fraction by which the compound increases the desaturation index above 1. The Amax value refers to the percent […] of the tested compound compared to the reference compound.

[3] = In vivo measurement of lowered meibum melting temperature (DSC); design: species or system Sprague Dawley rats; conditions: for Change of Tm: compound versus vehicle, rat meibum, DSC (method gives °C); for Mean ± SEM of Compound (meibum melting temperature): naive Sprague Dawley rats, 1% compound, DSC peak temperature (method gives °C), in °C; for Meibum melting temperature, in words: rat eyes, concentration of 1%, in comparison to vehicle
Experimental: For specific compounds Compound B and Compound C, the lowering of rat meibum melting temperature was measured in naive Sprague Dawley rats. The test animals were administered either vehicle or Compound B or Compound C, the meibum collected upon administration of the compounds was analyzed by differential scanning calorimetry to measure the melting point. The lowering of meibum melting point in rats administered Compound B or Compound C were compared to vehicle.
Melting properties of meibum were obtained using differential scanning calorimetry thermograms, recorded on a TA Discovery Q5000 (ThermoAnalytical). Samples were sealed in standard 40 μl aluminum pans and subjected to a heat-cool-heat cycle with melting temperatures being recorded on the second heating ramp. The samples were first heated to 150° C. at 30K/min then cooled −30° C. at 30K/min. Next, the sample was heated to 75° C. with an underlying heating rate of 2K/min, a period of modulation of 60 seconds and a temperature amplitude of modulation of 1° C. Dry N2 gas, at a flow rate of 50 mL/min was used to purge the DSC equipment during the measurement. Onset of melting and peak temperatures were recorded with peak temperature quoted as the melting point.
Results from the assay are shown Table 3 and in FIGS. 1 and 2. Results were analyzed using an unpaired t test with Welch's correction.

SMILES	EC50 [1] [nM]	Emax [1] [%]	EC50 [2] [nM]	Emax [2] [%]	Change of Tm [3]	Mean ± SEM of Compound (meibum melting temperature) [3]	Meibum melting temperature, in words [3]
CC(C)[C@@H]1CN(c2ccc(CO)c(S(C)(=O)=O)c2)CCN1c1ncc(CO)c(C(F)(F)F)n1 [Compound D, (R)-(2-(4-(4-(hydroxymethyl)-3-(methylsulfonyl)phenyl)-2-isopropylpiperazin-1-yl)-4-(trifluoromethyl)pyrimidin-5-yl)methanol]	2	66.2	41.8	65.6			
Fc1ccc(-c2c3cccc(C(F)(F)F)c3nn2Cc2ccc(F)cc2Cl)cc1 [Compound L, 2-(2-chloro-4-fluorobenzyl)-3-(4-fluorophenyl)-7-(trifluoromethyl)-2H-indazole]	> 18000	48.4	> 10000	33.3			
C[C@H](CCOc1cccc(C(C)(C)C(=O)O)c1)N(Cc1cccc(C(F)(F)F)c1Cl)CC(c1ccccc1)c1ccccc1 [Compound C, (R)-2-(3-(3-((2-chloro-3-(trifluoromethyl)benzyl)(2,2-diphenylethyl)amino)butoxy)phenyl)-2-methylpropanoic acid]	0.9	69.9	5.5	90.7	−1.513 ± 0.6575	30.68 ± 0.6065	decrease in meibum melting temperature
O=C(O)Cn1ccc2c(OCCCN(Cc3cccc(C(F)(F)F)c3Cl)CC(c3ccccc3)c3ccccc3)cccc21 [Compound A, 2-(4-(3-((2-chloro-3-(trifluoromethyl)benzyl)(2,2-diphenylethyl)amino)propoxy)-1H-indol-1-yl)acetic acid]	4.9	94	7.3	104			
CC(C)[C@@H]1c2nc3cc(CO)c(S(C)(=O)=O)cc3n2CCN1c1ncc(C(C)(C)O)c(C(F)(F)F)n1 [Compound N, (R)-2-(2-(8-(hydroxymethyl)-1-isopropyl-7-(methylsulfonyl)-3,4-dihydrobenzo[4,5]imidazo[1,2-a]pyrazin-2(1H)-yl)-4-(trifluoromethyl)pyrimidin-5-yl)propan-2-ol]	4	72.4	52	165			
O=S(=O)(c1ccccc1)N(CC(F)(F)F)c1ccc(C(O)(C(F)(F)F)C(F)(F)F)cc1 [Compound F, N-(4-(1,1,1,3,3,3-hexafluoro-2-hydroxypropan-2-yl)phenyl)-N-(2,2,2-trifluoroethyl)benzenesulfonamide]	47.4	76.1	190	89.8			

The next lines start with results.

EC50 [1] [nM]	SMILES	Emax [1] [%]	EC50 [2] [nM]	Emax [2] [%]	Change of Tm [3]	Mean ± SEM of Compound (meibum melting temperature) [3]	Meibum melting temperature, in words [3]
113	O=C(O)Cc1cccc(OCCCN(Cc2cccc(C(F)(F)F)c2Cl)CC(c2ccccc2)c2ccccc2)c1 [Compound H, 2-(3-(3-((2-chloro-3-(trifluoromethyl)benzyl)(2,2-diphenylethyl)amino)propoxy)phenyl)acetic acid]	92	88.1	97.4			
323	CCN(Cc1ccccc1)c1ccc(C(O)(C(F)(F)F)C(F)(F)F)cc1Cl [Compound J, 2-(4-(benzyl(ethyl)amino)-3-chlorophenyl)-1,1,1,3,3,3-hexafluoropropan-2-ol]	77.5	1470	58			
> 18000	CC(C)(O)c1cn(-c2ccc(-c3cc(F)c(CO)c(S(C)(=O)=O)c3)cc2F)c(C(C)(C)c2c(Cl)cccc2Cl)n1 [Compound I, 2-(2-(2-(2,6-dichlorophenyl)propan-2-yl)-1-(3,3′-difluoro-4′-(hydroxymethyl)-5′-(methylsulfonyl)-[1,1′-biphenyl]-4-yl)-1H-imidazol-4-yl)propan-2-ol]	43.3	4520	60.2			
538	CN(C)C(=O)c1ccc(-c2cnc(N3CCN(C(=O)C(C)(C)c4ccccc4)CC3)c(C#N)c2)cc1Cl [Compound K, 2-chloro-4-(5-cyano-6-(4-(2-methyl-2-phenylpropanoyl)piperazin-1-yl)pyridin-3-yl)-N,N-dimethylbenzamide]	66	458	151			
> 18000	CN(C)C(=O)c1ccc(N2CCC(C3CCN(S(=O)(=O)c4ccccc4Cl)CC3)CC2)cc1Cl [Compound M, 2-chloro-4-(1′-((2-chlorophenyl)sulfonyl)-[4,4′-bipiperidin]-1-yl)-N,N-dimethylbenzamide]	39.1	> 10000	29.2			
29.4	CCCc1c(OCCCN(C)c2cnc(CC(=O)O)cn2)ccc2c(C(F)(F)F)noc12 [Compound E, 2-(5-(methyl(3-((7-propyl-3-(trifluoromethyl)benzo[d]isoxazol-6-yl)oxy)propyl)amino)pyrazin-2-yl)acetic acid]	77.9	69	81.8			
1.8	CC(C)(C)N1C(=O)C(Nc2ccc(N3CCCCC3)cc2)=C(c2ccccc2)S1(=O)=O [Compound B, 2-(tert-butyl)-5-phenyl-4-((4-(piperidin-1-yl)phenyl)amino)isothiazol-3(2H)-one 1,1-dioxide]	64	168	92	−1.534 ± 0.3522	29.1 ± 0.2363	decrease in meibum melting temperature

— patent publication US20220257596A1, “METHODS FOR TREATING MEIBOMIAN GLAND DYSFUNCTION WITH LIVER X RECEPTOR AGONISTS” (Novartis AG, priority 2019, published 2022)
